Tests used:
male-pattern baldness = assay: Oral treatment of a person with male-pattern baldness (scalp photographs); type: in vivo, human; settings: oral 60 mg/day, photographs after three weeks and 90 days of treatment (FIG. 3-5)
Protocol: A person and approximately 75 kg in weight was experiencing male-pattern baldness. The individual was orally administered isomyosmine at a dosage of 60 mg/day over the course of three weeks. FIG. 3 is a photograph of the scalp of the individual before treatment. FIG. 4 is a photograph of the scalp of the individual after three weeks of treatment (and a haircut). FIG. 5 is a photograph of the scalp of the individual after 90 days of treatment.

MAO-A = target: T1, MAO-A (Homo sapiens, UniProt P21397); assay: MAO-Glo luminescent assay, MAO-A inhibition; type: biochemical; settings: FIG. 1
T1 construct: purchased
T1 sequence (P21397 1-527): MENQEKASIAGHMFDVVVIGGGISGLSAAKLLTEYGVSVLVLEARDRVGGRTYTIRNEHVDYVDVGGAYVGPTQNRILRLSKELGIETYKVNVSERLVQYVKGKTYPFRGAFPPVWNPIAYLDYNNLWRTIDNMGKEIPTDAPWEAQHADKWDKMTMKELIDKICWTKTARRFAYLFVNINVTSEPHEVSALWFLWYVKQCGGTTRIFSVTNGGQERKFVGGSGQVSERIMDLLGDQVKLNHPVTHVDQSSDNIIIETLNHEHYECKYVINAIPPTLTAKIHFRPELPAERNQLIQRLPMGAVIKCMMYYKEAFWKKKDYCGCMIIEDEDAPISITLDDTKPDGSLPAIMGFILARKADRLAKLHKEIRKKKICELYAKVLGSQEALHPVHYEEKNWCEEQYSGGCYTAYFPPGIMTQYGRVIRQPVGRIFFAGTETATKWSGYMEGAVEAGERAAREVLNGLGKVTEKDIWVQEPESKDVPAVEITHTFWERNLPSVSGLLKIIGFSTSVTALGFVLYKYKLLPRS
Text: (§1) This example describes experiments for determining monoamine oxidase (MAO) inhibition for isomyosmine and other alkaloids. MAOs are enzymes located on the outer membrane of mitochondria and are involved in the catabolism of monoamine neurotransmitters. There are two well-characterized isoenzymes: MAO-A, which predominantly catabolizes serotonin and norepinephrine, and MAO-B, which preferentially catabolizes benzylamine and phenylethylamine. Dopamine and tyramine are metabolized by both isoforms.
(§2) To detect the activity of MAO, a luminescent method (MAO-Glo Assay kit, from Promega, Cat # V1401) was used. In this method, a MAO substrate (a derivative of beetle luciferin provided in the kit) is mixed with the compound to be tested (in this case, myosmine and control compounds). Then, the MAO enzymes (either A or B, purchased separately) are added to the mixture and incubated with the reaction for 1 hour at room temperature. The MAO enzymes, if not inhibited by the test compound, will convert the substrate into methyl ester luciferin. Finally, a luciferin detection reagent (provided by the kit) is added (20 minutes at room temperature) to stop the MAO reaction and convert methyl ester luciferin into D-luciferin. […] The luminescent signal is measured and recorded using a luminometer.
Anatabine was obtained from Emerson Resources, Norristown, Pa.

MAO-B = target: T2, MAO-B (Homo sapiens, UniProt P27338); assay: MAO-Glo luminescent assay, MAO-B inhibition; type: biochemical; settings: FIG. 2; compared with myosmine, anatabine, anabasine, nornicotine
T2 construct: purchased
T2 sequence (P27338 1-520): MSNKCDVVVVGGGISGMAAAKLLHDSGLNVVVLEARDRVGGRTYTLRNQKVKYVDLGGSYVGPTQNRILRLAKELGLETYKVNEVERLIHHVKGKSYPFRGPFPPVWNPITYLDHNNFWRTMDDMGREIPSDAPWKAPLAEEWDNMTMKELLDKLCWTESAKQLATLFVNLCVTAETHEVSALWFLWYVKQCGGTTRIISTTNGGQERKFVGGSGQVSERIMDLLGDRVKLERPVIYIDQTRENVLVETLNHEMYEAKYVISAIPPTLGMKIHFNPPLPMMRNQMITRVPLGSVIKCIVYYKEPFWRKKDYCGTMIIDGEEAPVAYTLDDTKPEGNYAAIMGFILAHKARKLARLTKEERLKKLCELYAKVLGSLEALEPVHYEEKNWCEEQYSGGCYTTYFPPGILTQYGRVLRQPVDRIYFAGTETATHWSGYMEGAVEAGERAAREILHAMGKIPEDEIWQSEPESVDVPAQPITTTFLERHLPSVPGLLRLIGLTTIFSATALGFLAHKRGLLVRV
Text: as §1
as §2, with “luminometer. […]” for “luminometer.”

In the case of `C1=NC(c2cccnc2)CC1` (stereo not shown) [isomyosmine, 3-(3,4-dihydro-2H-pyrrol-2-yl)-pyridine], the “hair growth on the scalp” value (male-pattern baldness) is reported as “significant new growth of healthy, dark-colored hair on the scalp”, the inhibition at 2000 µM (MAO-A; 2 mM concentration (2,000 micromolar), read-out: inhibition of the enzymatic activity of MAO-A) is reported as about 50% and the “inhibiting the enzymatic activity of MAO-A, comparison of curves” value (MAO-A; compared with myosmine, anatabine, anabasine, nornicotine, clorgyline positive control) is reported as “the most potent of the five”. The “inhibiting the activity of MAO-B, comparison of curves” value (MAO-B) was “the most potent among the five alkaloids tested”.
